Experimental findings from patent US20230120211A1, “HDAC Degrader” (University of Leicester, priority 2020, published 2023) are described below.

Molecules are shown by their SMILES.

The target of one assay is T1, HDAC1 (Homo sapiens, UniProt Q13547).
T1 construct: endogenous in cells; host or cells: HCT116
In words: HDAC1 degradation in HCT116 cells, quantitative western blot. As to conditions: for Dmax: HCT-116, 24 h, HCT116, screened at 0.1, 1 and 10 μM, maximum degradation irrespective of concentration, read-out: HDAC1 Degrader (% Degradation). It counts as cell-based. As for the experimental part: (§1) The compounds were screened at 0.1 μM, 1 μM and 10 μM in a HCT116 cell line. The maximum degradation observed irrespective of the concertation was recorded. The screening of the new compounds was done in 6-well plates, 5 mL media, with 400,000 cells per well to increase throughput.
(§2) HCT116 or mES cells were treated 24 hours after seeding. 24 hours post treatment, cells were harvested, lysed in lysis buffer (50 mM Tris-HCl, 150 mM NaCl, 0.5% NP-40, 0.5% Triton X-100) with protease inhibitor (Sigma, P8340), then incubated on ice for 30 minutes, before being centrifuged (18,000 ref, 15 minutes, 4° C.). The supernatant was collected, and protein concentrations quantified via Bradford Assay using Protein Assay Dye Reagent Concentrate (BIO-RAD). For histone extraction, an equal volume of 0.4 N H2SO4 was added to the pellets and the extracts placed at 4° C. overnight. Following overnight incubation, the tubes were centrifuged (18,000 ref, 15 minutes, 4° C.) and then the supernatant (histone extract) collected.
(§3) PageRuler™ Plus Prestained Ladder was used for size standards. After gel electrophoresis at 140V for 75-90 minutes the separated proteins were transferred onto nitrocellulose membrane at 30V for 60 minutes. The membranes were probed with primary antibodies (listed below) for 60-90 minutes. Blots were developed with complimentary IRDye conjugated secondary antibodies and the bands visualised using the Odyssey Infrared Imaging System. Image processing and band intensity quantification was performed using Image Studio Lite.
(A western blot detects proteins with antibodies after separation by electrophoresis.)

A further assay has as its target T2, HDAC2 (Homo sapiens, UniProt Q92769).
T2 construct: endogenous in cells; host or cells: HCT116
Kind of assay: HDAC2 degradation in HCT116 cells, quantitative western blot. The assay is classed as cell-based. As to conditions: for HDAC 2 Degrader (% Degradation) / Dmax: HCT116, screened at 0.1, 1 and 10 μM, maximum degradation irrespective of concentration; for Dmax: HCT-116, 24 h, read-out: HDAC 2 Degrader (% Degradation). How it is done: as §1, §2, §3

Another assay concerns the target CoREST (Homo sapiens, UniProt Q13547). Kind of assay: HDAC inhibition assay, CoREST complex (Table 1, run under different conditions). It counts as biochemical. The settings on record: Table 1 conditions (differ from FIG. 3). How it is done:
Inhibition tests against LSD1-HDAC-CoREST complex were performed using a two-enzyme fluorescence-based HDAC assay. The inhibitor/PROTACs were dissolved at 50 mM in DMSO, then 1:2 serial dilutions performed using HDAC assay buffer (50 mM Tris pH 7.5, 150 mM NaCl) to afford range of concentrations.
The assays were performed in black 96-well plates with a reaction volume of 50 μL per well. All determinations were performed in triplicate. […] After an incubation of 20 minutes at 37° C. and 150 rpm, deacetylation was stopped by the addition of 50 μL of a developing solution containing trypsin (50 mM Tris pH 7.5, 100 mM NaCl, 10 mg/mL trypsin). […] HDAC Activity was calculated by subtracting the average blank fluorescence from the well fluorescence. Graphpad Prism software was utilised to determine IC50 values.

The next assay has as its target NuRD (Homo sapiens, UniProt Q13547). In words: HDAC inhibition assay, NuRD complex (Table 1). It counts as biochemical.
In another assay the target is MiDAC (Homo sapiens, UniProt Q13547). In words: HDAC inhibition assay, MiDAC complex (Table 1). It counts as biochemical.
The target of the next assay is T3, HDAC3 (Homo sapiens, UniProt O15379).
T3 construct: endogenous in cells; host or cells: HCT116
In words: HDAC3 degradation in HCT116 cells, quantitative western blot. The assay is classed as cell-based. As to conditions: HCT-116, 24 h; HCT116, screened at 0.1, 1 and 10 μM; maximum degradation irrespective of concentration; read-out: HDAC 3 degrader (% Degradation). As for the experimental part: as §1, §2, §3

Setting [1] is: HCT116, side by side with PROTAC 4, FIG. 4C.

T2 sequence (Q92769 whole entry): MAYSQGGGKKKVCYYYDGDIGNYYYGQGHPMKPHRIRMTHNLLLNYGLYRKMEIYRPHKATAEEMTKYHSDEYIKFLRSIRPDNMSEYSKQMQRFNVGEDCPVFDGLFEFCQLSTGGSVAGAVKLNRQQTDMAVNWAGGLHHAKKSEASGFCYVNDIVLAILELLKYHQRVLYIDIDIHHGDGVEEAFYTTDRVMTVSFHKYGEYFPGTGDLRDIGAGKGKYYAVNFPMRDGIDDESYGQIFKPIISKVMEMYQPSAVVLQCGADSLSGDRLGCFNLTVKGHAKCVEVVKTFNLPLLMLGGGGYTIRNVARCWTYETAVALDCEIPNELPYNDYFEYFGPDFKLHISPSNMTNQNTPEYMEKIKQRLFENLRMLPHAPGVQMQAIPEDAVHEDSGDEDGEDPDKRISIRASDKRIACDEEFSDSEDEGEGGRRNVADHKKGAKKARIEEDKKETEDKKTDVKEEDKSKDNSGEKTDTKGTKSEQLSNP
T3 sequence (O15379 whole entry): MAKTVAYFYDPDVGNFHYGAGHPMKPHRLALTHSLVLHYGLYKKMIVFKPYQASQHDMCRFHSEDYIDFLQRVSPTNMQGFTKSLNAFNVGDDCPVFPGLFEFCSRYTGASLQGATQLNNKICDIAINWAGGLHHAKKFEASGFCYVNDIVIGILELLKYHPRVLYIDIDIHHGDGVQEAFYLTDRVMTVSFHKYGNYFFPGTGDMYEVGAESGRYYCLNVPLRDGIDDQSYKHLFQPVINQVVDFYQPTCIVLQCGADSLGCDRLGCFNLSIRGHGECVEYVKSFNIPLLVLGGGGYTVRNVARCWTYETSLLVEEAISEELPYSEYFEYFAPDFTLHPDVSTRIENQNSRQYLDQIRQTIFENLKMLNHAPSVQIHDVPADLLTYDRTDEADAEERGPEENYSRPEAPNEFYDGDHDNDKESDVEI
T1 sequence (Q13547 whole entry): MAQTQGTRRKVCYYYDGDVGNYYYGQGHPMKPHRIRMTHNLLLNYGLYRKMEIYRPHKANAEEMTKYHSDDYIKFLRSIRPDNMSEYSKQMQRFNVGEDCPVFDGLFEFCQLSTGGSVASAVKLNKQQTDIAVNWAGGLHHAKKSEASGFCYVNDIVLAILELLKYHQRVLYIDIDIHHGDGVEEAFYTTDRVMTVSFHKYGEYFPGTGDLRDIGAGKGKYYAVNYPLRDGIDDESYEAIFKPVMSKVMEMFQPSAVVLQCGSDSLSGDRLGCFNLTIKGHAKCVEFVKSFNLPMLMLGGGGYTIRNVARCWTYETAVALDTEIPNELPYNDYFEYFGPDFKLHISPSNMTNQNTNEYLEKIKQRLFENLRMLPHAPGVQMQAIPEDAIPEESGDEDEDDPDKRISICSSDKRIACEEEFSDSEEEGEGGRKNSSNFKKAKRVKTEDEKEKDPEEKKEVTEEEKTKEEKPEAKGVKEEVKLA
Chain of NuRD (Q13547 whole entry): as above
Chain of NuRD (Q13330 162-546 partner limits assumed): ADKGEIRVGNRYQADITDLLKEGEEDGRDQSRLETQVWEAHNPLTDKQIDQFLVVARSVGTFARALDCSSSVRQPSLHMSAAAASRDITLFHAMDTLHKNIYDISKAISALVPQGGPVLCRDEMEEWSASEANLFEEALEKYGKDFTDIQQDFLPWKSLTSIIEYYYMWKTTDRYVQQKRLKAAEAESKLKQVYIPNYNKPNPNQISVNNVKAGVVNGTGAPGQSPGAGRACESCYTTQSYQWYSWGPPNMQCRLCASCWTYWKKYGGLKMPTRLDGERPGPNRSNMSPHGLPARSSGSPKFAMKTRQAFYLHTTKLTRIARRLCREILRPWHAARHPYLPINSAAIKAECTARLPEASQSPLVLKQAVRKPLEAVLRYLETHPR
Chain of NuRD (Q09028 whole entry partner): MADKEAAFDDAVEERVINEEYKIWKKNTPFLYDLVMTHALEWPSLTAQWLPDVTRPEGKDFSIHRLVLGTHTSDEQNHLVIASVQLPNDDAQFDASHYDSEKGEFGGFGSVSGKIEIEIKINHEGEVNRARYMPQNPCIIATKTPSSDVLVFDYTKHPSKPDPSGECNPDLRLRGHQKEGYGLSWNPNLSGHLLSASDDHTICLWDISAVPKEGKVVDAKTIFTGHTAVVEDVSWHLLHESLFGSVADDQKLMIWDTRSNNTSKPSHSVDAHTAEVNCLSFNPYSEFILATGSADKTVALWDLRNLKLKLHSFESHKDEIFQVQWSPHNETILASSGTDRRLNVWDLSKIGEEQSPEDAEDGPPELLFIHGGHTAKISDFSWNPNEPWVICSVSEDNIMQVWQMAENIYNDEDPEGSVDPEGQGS
Chain of CoREST (Q13547 whole entry, other chains not shown): as the sequence (Q13547 whole entry) above
Chain of CoREST (Q9UKL0 86-485 partner limits assumed, other chains not shown): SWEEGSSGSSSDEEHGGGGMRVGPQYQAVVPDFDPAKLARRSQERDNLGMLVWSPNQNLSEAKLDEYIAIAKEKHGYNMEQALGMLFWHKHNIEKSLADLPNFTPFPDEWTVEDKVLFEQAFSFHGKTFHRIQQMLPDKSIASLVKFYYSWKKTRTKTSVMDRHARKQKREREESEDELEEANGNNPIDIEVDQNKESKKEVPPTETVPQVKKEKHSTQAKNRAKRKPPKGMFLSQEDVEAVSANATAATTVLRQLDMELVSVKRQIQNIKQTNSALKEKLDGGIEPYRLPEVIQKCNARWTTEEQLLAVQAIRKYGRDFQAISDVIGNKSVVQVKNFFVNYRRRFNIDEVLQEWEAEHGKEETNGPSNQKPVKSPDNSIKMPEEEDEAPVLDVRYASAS
Chain of MiDAC (Q13547 whole entry): as the sequence (Q13547 whole entry) above
Chain of MiDAC (Q6PJG2 628-887 partner limits assumed): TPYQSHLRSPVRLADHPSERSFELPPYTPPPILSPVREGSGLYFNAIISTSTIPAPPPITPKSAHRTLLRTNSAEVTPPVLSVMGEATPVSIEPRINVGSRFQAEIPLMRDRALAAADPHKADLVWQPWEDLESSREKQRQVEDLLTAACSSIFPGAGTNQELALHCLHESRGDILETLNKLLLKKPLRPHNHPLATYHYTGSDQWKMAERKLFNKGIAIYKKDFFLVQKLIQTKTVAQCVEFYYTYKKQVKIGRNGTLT
Chain of MiDAC (Q9H147 whole entry partner): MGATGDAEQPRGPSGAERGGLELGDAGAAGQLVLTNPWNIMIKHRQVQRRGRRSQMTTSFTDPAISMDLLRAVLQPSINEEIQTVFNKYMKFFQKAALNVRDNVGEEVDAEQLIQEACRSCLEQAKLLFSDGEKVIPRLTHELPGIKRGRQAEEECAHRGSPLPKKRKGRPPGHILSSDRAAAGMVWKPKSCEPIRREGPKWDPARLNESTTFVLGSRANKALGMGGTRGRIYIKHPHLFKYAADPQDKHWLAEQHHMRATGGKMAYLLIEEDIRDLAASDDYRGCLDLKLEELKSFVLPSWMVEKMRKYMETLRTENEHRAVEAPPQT

On to `Cc1ncsc1-c1ccc(CNC(=O)[C@@H]2C[C@H](O)CN2C(=O)[C@@H](NC(=O)CCCCCCCCCCC(=O)Nc2ccc(C(=O)Nc3ccccc3N)cc2)C(C)(C)C)cc1` [NC-PROTAC4, N1-(4-((2-aminophenyl)carbamoyl)phenyl)-N12-((S)-1-((2S,4S)-4-hydroxy-2-((4-(4-methylthiazol-5-yl)benzyl)carbamoyl)pyrrolidin-1-yl)-3,3-dimethyl-1-oxobutan-2-yl)dodecanediamide], for which the HDAC1 degradation result on HDAC1 (setting [1]) was “No degradation”. Further, the HDAC2 degradation result at HDAC2 (setting [1]) is on record as “No degradation”.
Broadly, the IC50 is the concentration that inhibits the measured activity by half. High values mean weaker potency, low ones greater potency. Take `Cc1ncsc1-c1ccc(CNC(=O)[C@@H]2C[C@@H](O)CN2C(=O)[C@@H](NC(=O)CCCCCCCC(=O)Nc2ccc(C(=O)Nc3ccccc3N)cc2)C(C)(C)C)cc1` [PROTAC6, N1-(4-((2-aminophenyl)carbamoyl)phenyl)-N9-((S)-1-((2S,4R)-4-hydroxy-2-((4-(4-methylthiazol-5-yl)benzyl)carbamoyl)pyrrolidin-1-yl)-3,3-dimethyl-1-oxobutan-2-yl)nonanediamide]: the Dmax at HDAC1 worked out at 60%. The concentration for half-maximal inhibition (IC50) turned out to be 0.244 µM against CoREST, 0.338 µM at NuRD and 1.69 µM on MiDAC. Moreover, the “HDAC 2 Degrader (% Degradation)” value at HDAC2 is listed as “partial”.
As for `Cc1ncsc1-c1ccc(CNC(=O)[C@@H]2C[C@@H](O)CN2C(=O)[C@@H](NC(=O)COCCCCCCOCC(=O)Nc2ccc(C(=O)Nc3ccccc3N)cc2)C(C)(C)C)cc1` [PROTAC12, (2S,4R)-1-((S)-2-(2-((6-(2-((4-((2-aminophenyl)carbamoyl)phenyl)amino)-2-oxoethoxy)hexyl)oxy)acetamido)-3,3-dimethylbutanoyl)-4-hydroxy-N-(4-(4-methylthiazol-5-yl)benzyl)pyrrolidine-2-carboxamide], the results for the Dmax at HDAC1, on HDAC3 and at HDAC2 were 42%, 32% and 46%, respectively. Besides, the values for the half-maximal inhibitory concentration (IC50) at CoREST, against NuRD and against MiDAC were 7.17 µM, 8.13 µM and 5.15 µM, respectively.
With `Cc1ncsc1-c1ccc(CNC(=O)[C@@H]2C[C@@H](O)CN2C(=O)[C@@H](NC(=O)COCCCCCCCCCOCC(=O)Nc2ccc(C(=O)Nc3ccccc3N)cc2)C(C)(C)C)cc1` [PROTAC16, (2S,4R)-1-((S)-2-(2-((9-(2-((4-((2-aminophenyl)carbamoyl)phenyl)amino)-2-oxoethoxy)nonyl)oxy)acetamido)-3,3-dimethylbutanoyl)-4-hydroxy-N-(4-(4-methylthiazol-5-yl)benzyl)pyrrolidine-2-carboxamide], the results for the Dmax at HDAC1, at HDAC3 and on HDAC2 were 67%, 67% and 58%, respectively. Further, the results for the IC50 on CoREST and at NuRD were 4.13 µM and 11.8 µM, respectively.
In the case of `Cc1ncsc1-c1ccc(CNC(=O)[C@@H]2C[C@@H](O)CN2C(=O)[C@@H](NC(=O)COCCOCCOCC(=O)Nc2ccc(C(=O)Nc3cc(-c4cccs4)ccc3N)cc2)C(C)(C)C)cc1` [PROTAC22, (2S,4R)-1-((S)-14-((4-((2-amino-5-(thiophen-2-yl)phenyl)carbamoyl)phenyl)amino)-2-(tert-butyl)-4,14-dioxo-6,9,12-trioxa-3-azatetradecanoyl)-4-hydroxy-N-(4-(4-methylthiazol-5-yl)benzyl)pyrrolidine-2-carboxamide], the Dmax at HDAC1 and at HDAC3 was 32% throughout. The “HDAC 2 Degrader (% Degradation)” value on HDAC2 is “No”.
As for `CN[C@@H](C)C(=O)N[C@H](C(=O)N1C[C@@H](NC(=O)CCCCCCCCCCC(=O)Nc2ccc(C(=O)Nc3ccccc3N)cc2)C[C@H]1C(=O)N[C@@H]1CCCc2ccccc21)C1CCCCC1` [PROTAC26, N^1-(4-((2-aminophenyl)carbamoyl)phenyl)-N^12-((3S,5S)-1-((S)-2-cyclohexyl-2-((S)-2-(methylamino)propanamido)acetyl)-5-(((R)-1,2,3,4-tetrahydronaphthalen-1-yl)carbamoyl)pyrrolidin-3-yl) dodecanediamide], the Dmax on HDAC1 turned out to be 88%; at HDAC3 it was 88%; at HDAC2, 58%.
In the case of `Cc1ncsc1-c1ccc(CNC(=O)[C@@H]2C[C@@H](O)CN2C(=O)[C@@H](NC(=O)CCCCCCCn2cc(COC(=O)NCc3ccc(C(=O)Nc4ccccc4N)cc3)nn2)C(C)(C)C)cc1` [PROTAC29, (1-(8-(((S)-1-((2S,4R)-4-hydroxy-2-((4-(4-methylthiazol-5-yl)benzyl)carbamoyl)pyrrolidin-1-yl)-3,3-dimethyl-1-oxobutan-2-yl)amino)-8-oxooctyl)-1H-1,2,3-triazol-4-yl)methyl(4-((2-aminophenyl)carbamoyl)benzyl)carbamate], the Dmax at HDAC1 was determined as 39%; at HDAC3, 64%; at HDAC2, 23%.
Consider `Cc1ncsc1-c1ccc(CNC(=O)[C@@H]2C[C@@H](O)CN2C(=O)[C@@H](NC(=O)CCCCCCCCCCCCC(=O)Nc2ccc(C(=O)Nc3ccccc3N)cc2)C(C)(C)C)cc1` [PROTAC34, N1-(4-((2-aminophenyl)carbamoyl)phenyl)-N14-((S)-1-((2S,4R)-4-hydroxy-2-((4-(4-methylthiazol-5-yl)benzyl)carbamoyl)pyrrolidin-1-yl)-3,3-dimethyl-1-oxobutan-2-yl)tetradecanediamide], for which the Dmax at HDAC1 came to 47%; on HDAC3 it was 30%; at HDAC2, 44%.
On to `CC(=O)N[C@H](C(=O)N1C[C@H](O)C[C@H]1C(=O)NCc1ccc(-c2scnc2C)cc1OCCCCCCCCCCCC(=O)Nc1ccc(C(=O)Nc2ccccc2N)cc1)C(C)(C)C` [PROTAC35, (2S,4R)-1-((S)-2-acetamido-3,3-dimethylbutanoyl)-N-(2-((12-((4-((2-aminophenyl)carbamoyl)phenyl)amino)-12-oxododecyl)oxy)-4-(4-methylthiazol-5-yl)benzyl)-4-hydroxypyrrolidine-2-carboxamide], for which the Dmax was 61% at HDAC1, 38% on HDAC3 and 49% on HDAC2.
In the same order, the values of `Cc1ncsc1-c1ccc(CNC(=O)[C@@H]2C[C@@H](O)CN2C(=O)[C@@H](NC(=O)C2(F)CC2)C(C)(C)C)c(OCCCCCCCCCCCC(=O)Nc2ccc(C(=O)Nc3ccccc3N)cc2)c1` [PROTAC36, (2S,4R)-N-(2-((12-((4-((2-aminophenyl)carbamoyl)phenyl)amino)-12-oxododecyl)oxy)-4-(4-methylthiazol-5-yl)benzyl)-1-((S)-2-(1-fluorocyclopropane-1-carboxamido)-3,3-dimethylbutanoyl)-4-hydroxypyrrolidine-2-carboxamide] are 51%, 69% and 28%.
For `CN[C@@H](C)C(=O)N[C@H](C(=O)N1CCC[C@H]1c1nc(C(=O)c2cccc(OCCCCCCCCCCCC(=O)Nc3ccc(C(=O)Nc4ccccc4N)cc3)c2)cs1)C1CCCCC1` [PROTAC37, N-(2-aminophenyl)-4-(12-(3-(2-((S)-1-((S)-2-cyclohexyl-2-((S)-2-(methylamino)propanamido)acetyl)pyrrolidin-2-yl)thiazole-4-carbonyl)phenoxy)dodecanamido)benzamide], in that order: 38%, 37% and 16%.
